In brackets after ≈: the same amount, converted by molar mass.
How the values were obtained:
[1] = Inhibition of Mycobacterium marinum recombinant arylamine N-acetyltransferase-mediated acetyl coA hydrolysis by DTNB-based spectrophotometric analysis
[2] = Inhibition of Mycobacterium marinum recombinant arylamine N-acetyltransferase-mediated acetyl coA hydrolysis at 30 uM by DTNB-based spectrophotometric analysis
[3] = Competitive inhibition of Mycobacterium marinum recombinant arylamine N-acetyltransferase-mediated acetyl coA hydrolysis by DTNB-based spectrophotometric analysis
[4] = Inhibition of Pseudomonas aeruginosa arylamine N-acetyltransferase
[5] = test system: Mycobacterium tuberculosis; test: Antimycobacterial activity against Mycobacterium tuberculosis after 28 days; type: functional; settings: 672 h

Row | SMILES | IC50 [1] [µM] | inhibition [2] [%] | Ki [3] [µM] | IC50 [4] [µM] | MIC [5] [µM]
1 | COc1ccc(O)c(-c2cc(-c3ccc(F)cc3)[nH]n2)c1 | 21.3 | 59.2 |  |  | 
2 | COc1ccc(-c2cc(-c3cc(F)ccc3F)n[nH]2)cc1 | > 30 | 18.9 |  |  | 
3 | Fc1ccc(-c2cc(-c3cc(F)ccc3F)n[nH]2)cc1 | > 30 | 29.7 |  |  | 
4 | COc1ccc(-c2cc(-c3cccc(OC)c3)n[nH]2)cc1 | > 30 | 26.5 |  |  | 
5 | c1ccc(-c2cc(-c3ccccc3)[nH]n2)cc1 | > 30 | 45.2 |  |  | 
6 | COc1ccc(-c2cc(-c3cc(F)ccc3O)n[nH]2)cc1 | > 30 | 46.5 |  |  | 
7 | COc1ccc(-c2cc(-c3ccccc3)n[nH]2)cc1 | > 30 | 26.5 |  |  | 
8 | Fc1ccc(F)c(-c2cc(-c3ccccc3)[nH]n2)c1 | 18.8 | 53.5 |  |  | 
9 | COc1ccc(OC)c(-c2cc(-c3ccccc3)[nH]n2)c1 | 11.7 | 50.7 |  |  | 
10 | COc1ccc(-c2cc(-c3cc(O)ccc3O)n[nH]2)cc1 | > 30 | 21.5 |  |  | 
11 | COc1cccc(-c2cc(-c3ccc(F)cc3)[nH]n2)c1 | 17.6 | 61.2 |  |  | 
12 | Oc1ccc(F)cc1-c1cc(-c2ccc(F)cc2)[nH]n1 | > 30 | 32.7 |  |  | 
13 | COc1ccc(-c2cc(-c3cc(OC)ccc3O)[nH]n2)cc1 | 18.5 | 65.8 | 23.2 | 9.7 | 34 (≈ 10.1 µg/mL)
14 | COc1ccc(O)c(-c2cc(-c3ccccc3)[nH]n2)c1 | 12.9 | 53.9 |  |  | 
15 | COc1ccc(-c2cc(-c3cc(OC)ccc3OC)n[nH]2)cc1 | > 30 | 29.2 |  |  | 
16 | COc1ccc(-c2cc(-c3cc(O)cc(O)c3)n[nH]2)cc1 | > 30 | 15.6 |  |  | 

Source: ChEMBL document CHEMBL2375319, “Design, synthesis and structure-activity relationships of 3,5-diaryl-1H-pyrazoles as inhibitors of arylamine N-acetyltransferase” (Bioorg Med Chem Lett, 2013)
